Reference: US6825172B2, “3-descladinosyl-6-O-carbamoyl and 6-O-carbonoyl macrolide antibacterial agents” (Janssen Pharmaceutica, NV, priority 2002, dated 2004)
Values after ≈ are worked out from the molar mass of the structure shown. Read-outs that look alike come from different tables or passages of the source.

How the values were obtained:
Test in all cases: MIC, microdilution broth method (NCCLS)
Type in all cases: cell-based
E. coli OC2605 = settings: Escherichia coli
Procedure: (§1) Minimal inhibitory concentration (MIC) has been an indicator of in vitro antibacterial activity widely used in the art. The in vitro antimicrobial activity of the compounds was determined by the microdilution broth method following the test method from the National Committee for Clinical Laboratory Standards (NCCLS). This method is described in the NCCLS Document M7-A4, Vol.17, No.2, “Methods for Dilution Antimicrobial Susceptibility Test for Bacteria that Grow Aerobically—Fourth Edition”, which is incorporated herein by reference.
(§2) In this method two-fold serial dilutions of drug in cation adjusted Mueller-Hinton broth are added to wells in microdilution trays. The test organisms are prepared by adjusting the turbidity of actively growing broth cultures so that the final concentration of test organism after it is added to the wells is approximately 5×10^4 CFU/well.
(§3) Following inoculation of the microdilution trays, the trays are incubated at 35 °C for 16-20 hours and then read. […] The amount of growth in the wells containing the test compound is compared with the amount of growth in the growth-control wells (no test compound) used in each tray. As set forth in Table 1, compounds of the present invention were tested against a variety of Gram positive and Gram negative pathogenic bacteria resulting in a range of activities depending on the organism tested.

E. faecalis ATCC29212 = settings: Enterococcus faecalis, read-out: MIC Values, C: E. faecalis ATCC29212
Procedure: as §1, §2, §3

H. influenzae ATCC49247 = settings: Haemophilus influenzae, read-out: MIC Values, E: H. influenzae ATCC49247
Procedure: as §1, §2, §3

S. aureus ATCC29213 = settings: Staphylococcus aureus, read-out: MIC Values, B: S. aureus ATCC29213
Procedure: as §1, §2, §3

S. pneumoniae ATCC49619 = settings: Streptococcus pneumoniae, read-out: MIC Values, D: S. pneumoniae ATCC49619
Procedure: as §1, §2, §3

[1] = Table 1, 6-Carbamoyl-3-Acyl Macrolide Derivatives, read-out: MIC Values, A: E. coli OC2605
[2] = Table 1, 6-Carbamoyl-3-Acyl Macrolide Derivatives
[3] = Table 2, 3,6-Dicarbamoyl Macrolide Derivatives, read-out: MIC Values, A: E. coil OC2605
[4] = Table 2, 3,6-Dicarbamoyl Macrolide Derivatives

Row | SMILES | MIC (E. coli OC2605; [1]) [µg/mL] | MIC (E. faecalis ATCC29212; [2]) [µg/mL] | MIC (H. influenzae ATCC49247; [2]) [µg/mL] | MIC (S. aureus ATCC29213; [2]) [µg/mL] | MIC (S. pneumoniae ATCC49619; [2]) [µg/mL] | MIC (E. coli OC2605; [3]) [µg/mL] | MIC (E. faecalis ATCC29212; [4]) [µg/mL] | MIC (H. influenzae ATCC49247; [4]) [µg/mL] | MIC (S. aureus ATCC29213; [4]) [µg/mL] | MIC (S. pneumoniae ATCC49619; [4]) [µg/mL]
1 | CC[C@H]1OC(=O)[C@H](C)[C@@H](OC(=O)Cc2cccnc2)[C@H](C)[C@@H](O[C@@H]2O[C@H](C)C[C@H](N(C)C)[C@H]2O)[C@](C)(OC(=O)NC/C=C/c2cccnc2)C[C@@H](C)C(=O)[C@H](C)[C@H]2NC(=O)O[C@@]21C [Compound 19] | 16 (≈ 18.2 µM) | 0.25 (≈ 0.284 µM) | 1 (≈ 1.14 µM) | 1 (≈ 1.14 µM) | 0.06 (≈ 0.0682 µM) |  |  |  |  | 
2 | CC[C@H]1OC(=O)[C@H](C)[C@@H](OC(=O)Cc2cccnc2)[C@H](C)[C@@H](O[C@@H]2O[C@H](C)C[C@H](N(C)C)[C@H]2O)[C@](C)(OC(=O)NC/C=C/C=C/c2ccccn2)C[C@@H](C)C(=O)[C@H](C)[C@H]2NC(=O)O[C@@]21C [Compound 27] | 8 (≈ 8.83 µM) | 0.25 (≈ 0.276 µM) | 1 (≈ 1.1 µM) | 0.5 (≈ 0.552 µM) | 0.03 (≈ 0.0331 µM) |  |  |  |  | 
3 | CC[C@H]1OC(=O)[C@H](C)[C@@H](OC(=O)Nc2ccc(Cl)c(Cl)c2)[C@H](C)[C@@H](O[C@@H]2O[C@H](C)C[C@H](N(C)C)[C@H]2O)[C@](C)(OC(=O)NC/C=C/c2ccc(-c3ncccn3)cc2)C[C@@H](C)C(=O)[C@H](C)[C@H]2NC(=O)O[C@@]21C [Compound 54] |  |  |  |  |  | > 16 | 2 (≈ 1.95 µM) | 16 (≈ 15.6 µM) | 2 (≈ 1.95 µM) | 0.5 (≈ 0.487 µM)
4 | CC[C@H]1OC(=O)[C@H](C)[C@@H](OC(=O)Cc2cccnc2)[C@H](C)[C@@H](O[C@@H]2O[C@H](C)C[C@H](N(C)C)[C@H]2O)[C@](C)(OC(=O)NC/C=C/c2ccc(C(F)(F)F)nc2)C[C@@H](C)C(=O)[C@H](C)[C@H]2NC(=O)O[C@@]21C [Compound 36] | 16 (≈ 16.9 µM) | 0.25 (≈ 0.264 µM) | 4 (≈ 4.22 µM) | 1 (≈ 1.05 µM) | 0.06 (≈ 0.0633 µM) |  |  |  |  | 
5 | CC[C@H]1OC(=O)[C@H](C)[C@@H](OC(=O)Cc2cccnc2)[C@H](C)[C@@H](O[C@@H]2O[C@H](C)C[C@H](N(C)C)[C@H]2O)[C@](C)(OC(=O)NC/C=C/c2ccnc3ccccc23)C[C@@H](C)C(=O)[C@H](C)[C@H]2NC(=O)O[C@@]21C [Compound 34] | 8 (≈ 8.6 µM) | 0.25 (≈ 0.269 µM) | 2 (≈ 2.15 µM) | 0.5 (≈ 0.538 µM) | 0.03 (≈ 0.0323 µM) |  |  |  |  | 
6 | CC[C@H]1OC(=O)[C@H](C)[C@@H](OC(=O)N(C)c2cccnc2)[C@H](C)[C@@H](O[C@@H]2O[C@H](C)C[C@H](N(C)C)[C@H]2O)[C@](C)(OC(=O)NC/C=C/c2ccc(-c3ncccn3)cc2)C[C@@H](C)C(=O)[C@H](C)[C@H]2NC(=O)O[C@@]21C [Compound 60] |  |  |  |  |  | > 16 | 0.5 (≈ 0.514 µM) | 4 (≈ 4.11 µM) | 1 (≈ 1.03 µM) | 0.06 (≈ 0.0617 µM)
7 | CC[C@H]1OC(=O)[C@H](C)[C@@H](OC(=O)N(C)C)[C@H](C)[C@@H](O[C@@H]2O[C@H](C)C[C@H](N(C)C)[C@H]2O)[C@](C)(OC(=O)NC/C=C/c2ccc(-c3ncccn3)cc2)C[C@@H](C)C(=O)[C@H](C)[C@H]2NC(=O)O[C@@]21C [Compound 55] |  |  |  |  |  | 16 (≈ 17.6 µM) | 0.25 (≈ 0.275 µM) | 4 (≈ 4.4 µM) | 0.5 (≈ 0.55 µM) | 0.03 (≈ 0.033 µM)
8 | CC[C@H]1OC(=O)[C@H](C)[C@@H](OC(=O)Cc2cccnc2)[C@H](C)[C@@H](O[C@@H]2O[C@H](C)C[C@H](N(C)C)[C@H]2O)[C@](C)(OC(=O)NC/C=C/C=C/c2cccnc2)C[C@@H](C)C(=O)[C@H](C)[C@H]2NC(=O)O[C@@]21C [Compound 23] | 16 (≈ 17.7 µM) | 0.25 (≈ 0.276 µM) | 4 (≈ 4.41 µM) | 1 (≈ 1.1 µM) | 0.03 (≈ 0.0331 µM) |  |  |  |  | 
9 | CC[C@H]1OC(=O)[C@H](C)[C@@H](OC(=O)C(C)C)[C@H](C)[C@@H](O[C@@H]2O[C@H](C)C[C@H](N(C)C)[C@H]2O)[C@](C)(OC(=O)NC/C=C/C=C/c2cccnc2)C[C@@H](C)C(=O)[C@H](C)[C@H]2NC(=O)O[C@@]21C [Compound 24] | > 16 | 0.25 (≈ 0.292 µM) | 2 (≈ 2.33 µM) | 0.5 (≈ 0.583 µM) | < 0.015 |  |  |  |  | 
10 | CC[C@H]1OC(=O)[C@H](C)[C@@H](OC(=O)Cc2cn(C)c3ccccc23)[C@H](C)[C@@H](O[C@@H]2O[C@H](C)C[C@H](N(C)C)[C@H]2O)[C@](C)(OC(=O)NC/C=C/c2ccc(-c3ncccn3)cc2)C[C@@H](C)C(=O)[C@H](C)[C@H]2NC(=O)O[C@@]21C [Compound 11] | > 16 | 2 (≈ 1.98 µM) | 8 (≈ 7.93 µM) | 2 (≈ 1.98 µM) | 0.25 (≈ 0.248 µM) |  |  |  |  | 
